{
  "source": "paper PMC4286469",
  "about": "(Cancer research, 2014)",
  "key": {"in vivo": {"assay": "in vivo", "details": "C57Bl6, mouse, po, 30 mg/kg"}, "SK-Mel5 xenografts": {"test_system": "SK-Mel5 xenografts", "assay": "Marker analysis of SK-Mel5 xenograft tumors", "format": "in vivo, BALB/C nu/Foxn1 athymic nude mice", "details": "for p53 induction/activation in tumors (Western blot): (−)-Nutlin-3 200mg/kg"}, "SK-Mel5 melanoma cells": {"test_system": "SK-Mel5 melanoma cells", "assay": "Viability/cytotoxicity of SK-Mel5 melanoma cells", "format": "cell-based, human", "details": "for viability of melanoma cells under continuous exposure: p53^WT SK-Mel5, (−)-Nutlin-3 10µM, MLN8237 1µM, 7 days, Fig. 1D, E"}, "[1]": {"test_system": "patient-derived metastatic melanoma tumors", "details": "independent of BRAF and NRAS mutational status; ref [7]; cited from earlier work"}, "[2]": {"details": "mouse, in vivo, po, 30 mg/kg"}, "B16F0 tumors [3]": {"test_system": "B16F0 tumors", "assay": "B16F0 tumors in syngeneic immunocompetent C57Bl/6 mice", "format": "in vivo"}, "p53 [4]": {"test_system": "p53", "assay": "p53 and p53 target levels in cultured p53^WT melanoma cells", "format": "cell-based, human", "details": "for accumulation of p53 and its transcriptional targets: p53^WT cells (SK-Mel5 and Hs294T), (−)-Nutlin-3 10µM, MLN8237 1µM, 5 days"}, "B16F0 tumors [5]": {"test_system": "B16F0 tumors", "assay": "B16F0 tumors in immunodeficient NSG mice", "format": "in vivo", "details": "Fig. 4I"}, "[6]": {"test_system": "non-resectable melanoma tumors driven by BRAF^V600E", "details": "patients; ref [1]–[5]; cited from earlier work"}, "SK-Mel5 cells": {"test_system": "SK-Mel5 cells", "format": "cell-based, human"}, "cells with p53 knockout": {"test_system": "cells with p53 knockout", "assay": "Viability of cells with p53 knockout", "format": "cell-based", "details": "Fig. S2A"}, "[7]": {"assay": "Plasma and tumor pharmacokinetics in B16F0 melanoma-bearing C57Bl6 mice", "details": "200 mg/kg oral"}, "p53 [8]": {"test_system": "p53", "assay": "p53 level and activity in p53^MUT SK-Mel28 cells", "format": "cell-based, human"}},
  "note": "Where a SMILES comes first, the peptide text is derived from it. The star is where a group is joined. Cbz = O=C(OCc1ccccc1)*; CH2F = FC*",
  "data": [
    {"compound": "COc1cc(Nc2ncc3c(n2)-c2ccc(Cl)cc2C(c2c(F)cccc2OC)=NC3)ccc1C(=O)O", "note": "[MLN8237]", "values": [
      {"measurement": "AUC(0-t)", "setting": "in vivo", "result": 42.7, "unit": "µg·h/mL"},
      {"measurement": "p53 induction/activation in tumors (Western blot)", "setting": "SK-Mel5 xenografts; MLN8237 30mg/kg daily", "result": "moderate induction of p53"},
      {"measurement": "AURKA activity (auto-phosphorylation) in tumor lysates", "setting": "SK-Mel5 xenografts; MLN8237 30mg/kg daily", "result": "inhibited AURKA activity"},
      {"measurement": "tumor senescence (SA-β-Gal activity) and proliferation markers", "setting": "SK-Mel5 xenografts; MLN8237 30mg/kg daily", "result": "inhibition of cancer cell proliferation and induction of senescence"},
      {"measurement": "viability of melanoma cells under continuous exposure", "setting": "SK-Mel5 melanoma cells", "result": "mostly cytostatic response"},
      {"measurement": "patient-derived metastatic melanoma tumors with markedly slowed growth", "setting": "[1]", "result": "> 75", "unit": "%"},
      {"measurement": "overall median MLN8237 AUC0–24hr, tumor tissue", "setting": "[2]", "result": 37.4, "unit": "µg·h/g"},
      {"measurement": "tumor growth", "setting": "B16F0 tumors [3]; (−)-Nutlin-3 200mg/kg twice daily, MLN8237 30mg/kg once a day, oral gavage", "result": "partially inhibited tumor growth"},
      {"measurement": "CCL5 levels in melanoma cells and fibroblasts sorted from tumors (qRT-PCR)", "setting": "B16F0 tumors [3]; Fig. 5B", "result": "increased"},
      {"measurement": "tumor necrosis (H&E)", "setting": "B16F0 tumors [3]; immunocompetent mice, Fig. 4G", "result": "striking absence of necrosis"},
      {"measurement": "accumulation of p53 and its transcriptional targets", "setting": "p53 [4]", "result": "induced p53 accumulation"},
      {"measurement": "clearance of necrotic areas in senescent tumors", "setting": "B16F0 tumors [5]", "result": "abrogated"}
    ]},
    {"compound": "CC(C)(C)c1nc(-c2cccc(NS(=O)(=O)c3c(F)cccc3F)c2F)c(-c2ccnc(N)n2)s1", "note": "[dabrafenib]", "values": [
      {"measurement": "median progression-free survival", "setting": "[6]", "result": 6, "unit": "months"}
    ]},
    {"compound": "COC(=O)C[C@H](NC(=O)[C@H](C)NC(=O)[C@@H](NC(=O)OCc1ccccc1)C(C)C)C(=O)CF", "note": "[pan-caspase inhibitor, Z-VAD-FMK] (Cbz-Val-Ala-Asp(OMe)-CH2F)", "values": [
      {"measurement": "effect of pan-caspase inhibitor on cytotoxic response to p53 activation", "setting": "SK-Mel5 cells", "result": "did not interfere"}
    ]},
    {"compound": "(−)-Nutlin-3", "values": [
      {"measurement": "p53 induction/activation in tumors (Western blot)", "setting": "SK-Mel5 xenografts; MLN8237 30mg/kg daily", "result": "modest"},
      {"measurement": "tumor cells showing induction of apoptosis marker AIF", "setting": "SK-Mel5 xenografts; Fig. 3C", "result": "no more than 15%"},
      {"measurement": "tumor cells with elevated/strong p53 staining", "setting": "SK-Mel5 xenografts; Fig. S3, untreated control tumors 3–6%", "result": 11, "unit": "%"},
      {"measurement": "viability of cells with p53 knockout", "setting": "cells with p53 knockout", "result": "did not affect viability"},
      {"measurement": "median (−)-Nutlin-3 AUC0–24hr, plasma", "setting": "[7]; plasma", "result": 292.7, "unit": "µg·h/mL"},
      {"measurement": "median (−)-Nutlin-3 AUC0–24hr, tumor tissue", "setting": "[7]; tumor tissue", "result": 455.6, "unit": "µg·h/mL"},
      {"measurement": "cytotoxicity in senescent and non-senescent cells", "setting": "SK-Mel5 melanoma cells; SK-Mel5, senescent (1 µM MLN8237 pre-treated) and non-senescent (vehicle pre-treated) cells, Fig. 1A, B", "result": "dose-dependent cytotoxicity"},
      {"measurement": "viability of melanoma cells under continuous exposure", "setting": "SK-Mel5 melanoma cells", "result": "killed p53^WT melanoma cells"},
      {"measurement": "mitochondrial membrane potential (JC-1)", "setting": "SK-Mel5 cells; (−)-Nutlin-3 10µM, MLN8237 1µM, 5 days", "result": "decrease in mitochondrial membrane potential"},
      {"measurement": "cleavage of caspase 3", "setting": "SK-Mel5 cells; Fig. S2C", "result": "not detected"},
      {"measurement": "Apoptosis Inducing Factor (AIF) activation and translocation", "setting": "SK-Mel5 cells; SK-Mel5, IF staining", "result": "induced activation, mitochondrial release and nuclear translocation"},
      {"measurement": "apoptosis (Annexin V-FITC and PI staining)", "setting": "SK-Mel5 cells; p53^WT melanoma cells, 10µM, 5 days", "result": "induced apoptosis"},
      {"measurement": "p53 levels in tumors", "setting": "B16F0 tumors [3]; IF staining, Fig. 4D", "result": "not strongly induced"},
      {"measurement": "level and activity of p53", "setting": "p53 [8]", "result": "unaffected"},
      {"measurement": "cells showing strong p53 induction in vitro", "setting": "p53 [4]; in vitro, Fig. S2B", "result": 100, "unit": "%"},
      {"measurement": "accumulation of p53 and its transcriptional targets", "setting": "p53 [4]", "result": "induced accumulation of p53 and its transcriptional targets p21, PUMA, BAX and MDM2"}
    ]}
  ]
}
